Where a name gives a salt, the structure may show the parent alone. Read-outs that look alike come from different tables or passages of the source.
What was measured:
RIPK1 = RIPK1 (Homo sapiens (Human), UniProt Q13546); assay: RIPK1 ADP-Glo biochemical kinase assay; conditions: read-out: RIPK1 ADP-Glo Kinase (IC50)
Protocol: The final reaction volume was 5.0ul.
Adding 5 μl of ADP-Glo™ terminated the reaction.

L929 cells = assay: L929 cell necroptosis assay (TNFa + zVAD, CellTiter-Glo); type: cell-based, murine
How it was run: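 Necroptosis was read as CellTiter-Glo luminescence 18 hours after TNFa stimulation at 37° C, 5% CO2. Prior to that, L929 cells (10K/well, plated 18 h) received fresh medium with 40 uM zVAD-fmk plus 4-fold serially diluted compound.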

U937 cells = assay: U937 cell necroptosis assay (TNFa + zVAD, CellTiter-Glo); type: cell-based, human
How it was run: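 Necroptosis was induced with TNFa at 2 ng/mL final for 18 h at 37 °C, following 1 h compound pre-incubation in the presence of zVAD-fmk (60 uM for U937 plating medium, 40 uM for L929 medium). Luminescent CellTiter-Glo signal gave relative cell survival.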

[1] = Mus musculus, L929, L929 cells, TNFa + zVAD, read-out: L929-CTG-recovery, L929, TNFa + zVAD (IC50)
[2] = Homo sapiens, U-937, U937 cells, TNFa + zVAD, read-out: U937 Zvad TNF CTG Recovery, U937, TNFa + zVAD (IC50)
[3] = Mus musculus, L929, read-out: L929-CTG-recovery, L929, TNFa + zVAD (IC50), L929 cells, TNFa + zVAD
[4] = Homo sapiens, U-937, read-out: U937 Zvad TNF CTG Recovery, U937, TNFa + zVAD (IC50), U937 cells, TNFa + zVAD
[5] = L929 cells, TNFa + zVAD, read-out: L929-CTG-recovery, L929, TNFa + zVAD (IC50)
[6] = U937 cells, TNFa + zVAD, read-out: U937 Zvad TNF CTG Recovery, U937, TNFa + zVAD (IC50)

RIPK1, sequence (Q13546 whole entry, species assumed): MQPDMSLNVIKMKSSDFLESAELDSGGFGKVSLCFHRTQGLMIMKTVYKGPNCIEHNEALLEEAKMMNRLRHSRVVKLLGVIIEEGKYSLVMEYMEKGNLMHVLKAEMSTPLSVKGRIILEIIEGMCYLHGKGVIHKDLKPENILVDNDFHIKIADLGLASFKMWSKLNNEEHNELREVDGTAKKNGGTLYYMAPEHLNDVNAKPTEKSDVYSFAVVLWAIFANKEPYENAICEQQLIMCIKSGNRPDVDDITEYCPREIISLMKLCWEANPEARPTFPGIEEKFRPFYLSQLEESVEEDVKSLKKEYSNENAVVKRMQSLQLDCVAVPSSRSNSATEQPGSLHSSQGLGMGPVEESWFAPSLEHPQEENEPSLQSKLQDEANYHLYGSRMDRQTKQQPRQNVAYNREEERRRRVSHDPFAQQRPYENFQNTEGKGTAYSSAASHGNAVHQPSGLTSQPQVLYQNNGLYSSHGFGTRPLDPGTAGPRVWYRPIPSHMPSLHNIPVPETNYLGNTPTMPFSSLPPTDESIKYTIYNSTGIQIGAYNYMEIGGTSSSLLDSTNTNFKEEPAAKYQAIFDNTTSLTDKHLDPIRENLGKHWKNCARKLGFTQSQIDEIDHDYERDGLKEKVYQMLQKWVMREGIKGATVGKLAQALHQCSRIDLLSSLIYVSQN

SMILES | IC50 (RIPK1) | IC50 (L929 cells; [1]) | IC50 (U937 cells; [2]) | IC50 (L929 cells; [3]) | IC50 (U937 cells; [4]) | IC50 (L929 cells; [5]) | IC50 (U937 cells; [6])
CN1C(=O)[C@@H](NC(=O)c2cc(Oc3ccccc3)ccn2)COc2ccc(CCC(N)=O)cc21 [II-24, (S)—N-(7-(3-amino-3-oxopropyl)-5-methyl-4-oxo-2,3,4,5-tetrahydrobenzo[b][1,4]oxazepin-3-yl)-4-phenoxypicolinamide] | 56.3 nM | – | – | 7910 nM | 16.6 nM | – | –
CN1C(=O)[C@@H](NC(=O)c2cc(Oc3ccccc3)ccn2)COc2ccc(C#CC3(OC(=O)CCC(=O)O)COC3)cc21 [Compound I-165, (S)-4-((3-((5-methyl-4-oxo-3-(4-phenoxypicolinamido)-2,3,4,5-tetrahydrobenzo[b][1,4]oxazepin-7-yl)ethynyl)oxetan-3-yl)oxy)-4-oxobutanoic acid 2-amino-2-(hydroxymethyl)propane-1,3-diol salt] | 11.2 nM | – | – | – | – | 47.1 nM | 0.9 nM
CN1C(=O)[C@@H](NC(=O)c2ncn(Cc3ccccc3)n2)COc2ccc(C#CC3(O)CCOCC3)cc21 [Compound I-54, (S)-1-benzyl-N-(7-((4-hydroxytetrahydro-2H-pyran-4-yl)ethynyl)-5-methyl-4-oxo-2,3,4,5-tetrahydrobenzo[b][1,4]oxazepin-3-yl)-1H-1,2,4-triazole-3-carboxamide] | 26.9 nM | 0.3 nM | 0.9 nM | – | – | – | –
CN1C(=O)[C@@H](NC(=O)c2n[nH]c(Cc3ccccc3)n2)COc2ccc(C#C[Si](C)(C)C)cc21 [Compound I-97, (S)-5-benzyl-N-(5-methyl-4-oxo-7-((trimethylsilyl)ethynyl)-2,3,4,5-drobenzo[b][1,4]oxazepin-3-yl)-1H-1,2,4-triazole-3-carboxamide] | 85.8 nM | – | – | – | – | 0.9 nM | 1.7 nM
CN1C(=O)[C@@H](NC(=O)c2cc(Oc3ccccc3)ccn2)COc2ccc(C#CC(C)(C)C)cc21 [II-25, (S)—N-(7-(3,3-dimethylbut-1-yn-1-yl)-5-methyl-4-oxo-2,3,4,5-tetrahydrobenzo[b][1,4]oxazepin-3-yl)-4-phenoxypicolinamide] | 226 nM | – | – | 202 nM | 2.4 nM | – | –

The next lines start with results.

IC50 (RIPK1) | SMILES | IC50 (L929 cells; [1]) | IC50 (U937 cells; [2]) | IC50 (L929 cells; [3]) | IC50 (U937 cells; [4]) | IC50 (L929 cells; [5]) | IC50 (U937 cells; [6])
64.4 nM | CC(C)CCc1ccc2c(c1)N(C)C(=O)[C@@H](NC(=O)c1n[nH]c(Cc3ccccc3)n1)CO2 [Compound I-60, (S)-5-benzyl-N-(7-isopentyl-5-methyl-4-oxo-2,3,4,5-tetrahydrobenzo[b][1,4]oxazepin-3-yl)-1H-1,2,4-triazole-3-carboxamide] | 2.4 nM | 4.8 nM | – | – | – | –
65.4 nM | COC(C)(C)C#Cc1ccc2c(c1)N(C)C(=O)[C@@H](NC(=O)c1n[nH]c(Cc3ccccc3)n1)CO2 [Compound I-61, (S)-5-benzyl-N-(7-(3-methoxy-3-methylbut-1-yn-1-yl)-5-methyl-4-oxo-2,3,4,5-tetrahydrobenzo[b][1,4]oxazepin-3-yl)-1H-1,2,4-triazole-3-carboxamide] | 1.3 nM | 3.4 nM | – | – | – | –
82.5 nM | CN1C(=O)[C@@H](NC(=O)c2n[nH]c(Cc3ccccc3)n2)COc2ccc(C#CCCOc3cccc4ncccc34)cc21 [Compound I-45, (S)-5-benzyl-N-(5-methyl-4-oxo-7-(4-(quinolin-5-yloxy)but-1-yn-1-yl)-2,3,4,5-tetrahydrobenzo[b][1,4]oxazepin-3-yl)-1H-1,2,4-triazole-3-carboxamide] | 0.3 nM | 1.4 nM | – | – | – | –
33.4 nM | CN1C(=O)[C@@H](NC(=O)c2n[nH]c(Cc3cccc(F)c3)n2)COc2ccc(C#CC(C)(C)O)cc21 [Compound I-78, (S)-5-(3-fluorobenzyl)-N-(7-(3-hydroxy-3-methylbut-1-yn-1-yl)-5-methyl-4-oxo-2,3,4,5-tetrahydrobenzo[b][1,4]oxazepin-3-yl)-1H-1,2,4-triazole-3-carboxamide] | 0.9 nM | 2.5 nM | – | – | – | –
